In patent US11026972B2, “Methods for generating macrophages with enhanced cancer phagocytosis” (Georgia State University Research Foundation, Inc., priority 2016, dated 2021):

Experiments:
[1] = test system: PEMs; test: Cell signaling inhibitors on LPS/cytokine- or PMA-induced PEM phagocytic activation toward RBCs; assay type: cell-based, mouse; conditions: for LPS and cytokine-induced phagocytic activation: PEMs treated with LPS and cytokines in the presence of inhibitors
Experimental: FIGS. 5A-5H include data related to our experiments on the role of Syk in phagocytic activation. […] PEMs were treated with LPS and cytokines in the presence of various inhibitors. After washing, inhibitor-free macrophages were tested for phagocytosis toward RBCs. […] PEMs treated with LPS and activating cytokines, or together with IL-10, were tested for total Syk and phosphorylated Syk (Syk^pY, specific at Y519/520). FIG. 5D describes PMA-induced macrophages phagocytosis toward RBCs. WT and SIRPα^−/− PEMs were treated with PMA (37° C., 30 min) before testing phagocytosis toward RBCs. FIG. 5E is a schematic depiction of PKC-Syk-mediated macrophage phagocytic activation toward self. […] Left: Inhibition of Syk by piceatannol and R406 prevented PMA-induced phagocytic activation. […] Error bars are ±SEM. ***P<0.001 vs. the respective controls. […] LPS-treated WT PEMs were further briefly treated with pervanadate before testing for phagocytosis toward RBCs. Error bars are ±SEM. ***P<0.001 vs. the respective controls. […] Data presented in each panel represent at least three independent experiments with n≥4, if applicable.
Ex vivo macrophage phagocytosis: Mouse spleens were harvested and minced in cold HBSS followed by passing through nylon meshes. The spleen cells in suspensions were collected by centrifugation followed by washing. After lysis of RBC, splenocytes were plated in cell culture dishes in DMEM with 10% FBS and cultured for 2 h followed by removal of non-adherent cells. The adherent cells, ˜70% being macrophages as determined by anti-F4/80 staining, were tested for phagocytosis. For phagocytosis of RBC or other tissue cells, targeted cells were labeled with CFSE prior to addition into the macrophage-containing wells. Macrophages and target cells, at a ratio of 1:5-10 for RBC or 1:1-2 for other cells, were co-incubated for 30 min at 37° C. followed by gently washing. Macrophage phagocytosis of target cells was then analyzed by fluorescence microscopy and/or by FACS. […] Alternatively, the freshly isolated splenocytes in suspension were incubated with CFSE-labeled RBC and other phagocytic targets for 30 min at 37° C. Macrophage phagocytosis was then determined by FACS after labeling macrophages with anti-F4/80. To test phagocytosis of apoptotic cells, B16 cells were irradiated by UV for 150 seconds at 50 J/m^2 strength. Apoptosis was analyzed at 2, 4, 6, 8 and 18 h post UV irradiation by labeling of the cells with anti-phosphatidylserine (PS) antibody (data not shown) or FITC-conjugated annexin V (data not shown). Cells that were confirmed to be apoptotic were trypsinized, labeled with CFSE, and then co-incubated with macrophages for 30 min at 37° C. After gentle washing, phagocytosis was analyzed by fluorescence microscopy and/or FACS. To test phagocytosis of bacteria and the fungal product zymosan, AlexaFluor-conjugated E.coli strain […] (2 μl suspension, ˜2 μg) or zymosan bioparticles (1 μl suspension, ˜2 μg) (both from Invitrogen) were incubated with macrophages for 30 min followed by washing and analyses. Similar procedures were performed to test phagocytosis of macrophages from various sources. To obtain peritoneal macrophages, peritonea of mice were lavaged by sterile PBS followed by centrifugation to collect cells. Cells suspended in DMEM with 10% FBS were then plated in cell culture dishes and incubated for 2 h at 37° C. followed by removal of non-adherent cells. To produce bone marrow-derived macrophages, freshly isolated bone marrow cells were culture in macrophage colony-stimulating factor (MCSF, ˜10 ng/ml)-containing MEM with 10% FBS for five-six days and macrophage differentiation was confirmed by anti-F4/80 staining.

[2] = test system: splenic macrophages, PEMs and BMDMs; test: Ex vivo macrophage phagocytosis toward RBCs and other self-cells after activation; assay type: cell-based, mouse; conditions: for ability to induce macrophage phagocytosis toward self: PEM, lack of the CD47-SIRPα-mediated inhibition
Experimental: FIGS. 3A-3H include data related to our experiments assaying macrophage phagocytosis ex vivo. FIGS. 3A and 3B show macrophage phagocytosis of RBCs. Freshly isolated splenic macrophages (MØ) and peritoneal macrophages (PEM) and in vitro-derived BMDM (bone marrow-derived macrophages) were tested for phagocytosis toward CFSE-labeled Cd47^+ or Cd47^− RBCs. […] FIGS. 3F and 3G illustrate LPS and IL-17-activated PEM phagocytosis toward splenocytes (FIG. 3F), B16, and EL4 (FIG. 3G). Error bars are ±SEM. **P<0.01, ***P<0.001 vs. no treatment controls. […] PEM lavaged without (ctl.) or with Brewer thioglycollate (3%, i.p.) elicitation was tested. Error bars are ±SEM. ***P<0.001 vs. control PEM. Data presented in each panel represent at least three independent experiments with n≥4, if applicable.
FIGS. 4A-4E include data related to our experiments on macrophage phagocytic plasticity. FIG. 4A is a panel of illustrative line graphs showing that IL-10 inhibits macrophage phagocytosis toward “self.” PEMs were treated with LPS and activating cytokines along with various concentrations of IL-10 before testing their ability to phagocytose RBCs. FIG. 4B illustrates the phagocytic plasticity of WT red pulp macrophages. […] Treatments of cultured macrophages with LPS and IL-17 re-elicited their phagocytosis toward RBCs. […] Error bars are ±SEM. ***P<0.001 vs. freshly isolated splenic macrophages. FIG. 4D includes microscopic images of RBC phagocytosis by LPS- and IL-17-treated splenic macrophages. […] WT PEMs treated with LPS or IL-17 were further treated with Cd47^+ RBCs or Cd47-AP (10 min, 37° C.) followed by cell lysis, SIRPα immunoprecipitation, and WB detection of SIRPα phosphorylation (SIRPα^pY) and SHP-1 association. Data presented in each panel represent at least three independent experiments with n≥4, if applicable.
Ex vivo macrophage phagocytosis: Mouse spleens were harvested and minced in cold HBSS followed by passing through nylon meshes. The spleen cells in suspensions were collected by centrifugation followed by washing. After lysis of RBC, splenocytes were plated in cell culture dishes in DMEM with 10% FBS and cultured for 2 h followed by removal of non-adherent cells. The adherent cells, ˜70% being macrophages as determined by anti-F4/80 staining, were tested for phagocytosis. For phagocytosis of RBC or other tissue cells, targeted cells were labeled with CFSE prior to addition into the macrophage-containing wells. Macrophages and target cells, at a ratio of 1:5-10 for RBC or 1:1-2 for other cells, were co-incubated for 30 min at 37° C. followed by gently washing. Macrophage phagocytosis of target cells was then analyzed by fluorescence microscopy and/or by FACS. To better recognize macrophages, macrophages in wells were labeled with an anti-F4/80 or an anti-CD11b antibody. Alternatively, the freshly isolated splenocytes in suspension were incubated with CFSE-labeled RBC and other phagocytic targets for 30 min at 37° C. Macrophage phagocytosis was then determined by FACS after labeling macrophages with anti-F4/80. To test phagocytosis of apoptotic cells, B16 cells were irradiated by UV for 150 seconds at 50 J/m^2 strength. Apoptosis was analyzed at 2, 4, 6, 8 and 18 h post UV irradiation by labeling of the cells with anti-phosphatidylserine (PS) antibody (data not shown) or FITC-conjugated annexin V (data not shown). Cells that were confirmed to be apoptotic were trypsinized, labeled with CFSE, and then co-incubated with macrophages for 30 min at 37° C. After gentle washing, phagocytosis was analyzed by fluorescence microscopy and/or FACS. To test phagocytosis of bacteria and the fungal product zymosan, AlexaFluor-conjugated E.coli strain […] (2 μl suspension, ˜2 μg) or zymosan bioparticles (1 μl suspension, ˜2 μg) (both from Invitrogen) were incubated with macrophages for 30 min followed by washing and analyses. Similar procedures were performed to test phagocytosis of macrophages from various sources. […]

JAK inhibitor I
LPS and cytokine-induced phagocytic activation [1]: diminished phagocytic activation induced by certain, but not all stimuli

COc1ccc2c(c1)CC[C@@H]1[C@@H]2CC[C@]2(C)[C@@H](NCCCCCCN3C(=O)C=CC3=O)CC[C@@H]12 [U73122]
LPS and cytokine-induced phagocytic activation [1]: diminished phagocytic activation induced by certain, but not all stimuli

O=C(O)CN(CCN(CC(=O)O)CC(=O)O)CC(=O)O [EDTA]
macrophage phagocytic activation ([1]; presence of EDTA): hindered macrophage phagocytic activation

COc1cc2ncnc(Nc3ccc(O)cc3)c2cc1OC [JAK3 inhibitor I]
LPS and cytokine-induced phagocytic activation [1]: diminished phagocytic activation induced by certain, but not all stimuli

C/C(O)=C(\C#N)C(=O)Nc1cc(Br)ccc1Br [LFM-13]
LPS and cytokine-induced phagocytic activation [1]: diminished phagocytic activation induced by certain, but not all stimuli

COc1cc(Nc2ncc(F)c(Nc3ccc4c(n3)NC(=O)C(C)(C)O4)n2)cc(OC)c1OC [R406]
PEM activation ([1]; 400 nM, all stimuli): nearly completely eliminated PEM activation induced by all stimuli | PMA-induced PEM phagocytosis ([1]; Syk inhibition): eliminated the PMA-induced PEM phagocytosis | LPS-induced activation of PEM phagocytosis toward RBC ([1]; dose dependence): dose-dependently inhibited

Cc1ccc(-c2nn(C(C)(C)C)c3ncnc(N)c23)cc1 [PP1]
LPS and cytokine-induced phagocytic activation [1]: diminished phagocytic activation induced by certain, but not all stimuli

pervanadate
Cd47-dependent phagocytic recognition ([2]; LPS-treated WT PEMs briefly treated with pervanadate): eliminates Cd47-dependent phagocytic recognition

tumor necrosis factor-alpha [TNFα]
ability to induce macrophage phagocytosis toward self [2]: have the ability to induce macrophage phagocytosis toward self

Cc1ccc(NCCCc2ccccc2)c(N)c1 [JSH-23]
LPS and cytokine-induced phagocytic activation [1]: diminished phagocytic activation induced by certain, but not all stimuli

C[S+]([O-])c1ccc(-c2nc(-c3ccncc3)c(-c3ccc(F)cc3)[nH]2)cc1 (centres unmarked) [SB203580]
LPS and cytokine-induced phagocytic activation [1]: diminished phagocytic activation induced by certain, but not all stimuli

COc1cccc(-c2cc(=O)c3ccccc3o2)c1N [PD98059]
LPS and cytokine-induced phagocytic activation [1]: diminished phagocytic activation induced by certain, but not all stimuli

CC(C)(C)n1nc(-c2ccc(Cl)cc2)c2c(N)ncnc21 [PP2]
LPS and cytokine-induced phagocytic activation [1]: diminished phagocytic activation induced by certain, but not all stimuli

B1: IL-1β: recombinant murine cytokine, PeproTech (protein, UniProt P10749 118-269, looked up)
Interleukin-1 beta: VPIRQLHYRLRDEQQKSLVLSDPYELKALHLNGQNINQQVIFSMSFVQGEPSNDKIPVALGLKGKNLYLSCVMKDGTPTLQLESVDPKQYPKKKMEKRFVFNKIEVKSKVEFESAEFPNWYISTSQAEHKPVFLGNNSGQDIIDFTMESVSS
ability to induce macrophage phagocytosis toward self [2]: have the ability to induce macrophage phagocytosis toward self

B2: IFNγ: recombinant murine cytokine, PeproTech (protein, UniProt P01580 23-155, looked up)
Interferon gamma: HGTVIESLESLNNYFNSSGIDVEEKSLFLDIWRNWQKDGDMKILQSQIISFYLRLFEVLKDNQAISNNISVIESHLITTFFSNSKAKKDAFMSIAKFEVNNPQVQRQAFNELIRVVHQLLPESSLRKRKRSRC
ability to induce macrophage phagocytosis toward self [2]: not
